In EP1479389B1, “Ready to use gemcitabine solutions” (STADA ARZNEIMITTEL AG, priority 2003, dated 2004):

Key:
Format in all cases: physicochemical
[1] = pH-dependent visible crystallisation of concentrated gemcitabine solutions; conditions: pH 5,0; 25°C; c=52,7 mg Gemcitabin/ml
[2] = Regressive extrapolation of the Table 6 storage stability data to 1-4 years; conditions: 10 mg/ml in aqueous solution, pH ca. 8; Lagertemperatur 25°C
Description: Eine regressive Extrapolation der in Tabelle 6 angegebenen Daten ergab folgende in Tabelle 7 aufgeführte Lagerstabilitäten. Tabelle 7 : Stabilität von Gemcitabin-Lösungen mit pH = 8,0 bei 25°C, 40°C und 60°C bei einer Lagerzeit von 1-4 Jahren

[3] = Temperature-dependent storage stability of gemcitabine solutions pH 4,0, content by HPLC; conditions: 10 mg/ml
Description: Zur weiteren Bestimmung der Temperatur-Abhängigkeit der Stabilität von erfindungsgemäßen Gemcitabin-Lösungen mit einem pH-Wert von ca. 4,0, wurden wie zuvor beschrieben Lösungen, deren pH-Wert mit 1 N Natronlauge eingestellt wurde, mit einer Gemcitabin-Konzentration von 10 mg/ml (in Wasser für Injektionszwecke) hergestellt. Diese wurden über einen Zeitraum von 12 Monaten gelagert. In dieser Zeit wurde die Wirkstoffkonzentration in regelmäßigen Abständen mittels HPLC bestimmt. Tabelle 3: Temperatur-abhängige Stabilität von Gemcitabin-Lösungen (c(Gemcitabin) = 10 mg/ml entsprechend 11,39 mg Gemcitabinhydrochlorid pro ml Wasser, pH 4,0)

[4] = pH-dependent visible crystallisation of concentrated gemcitabine solutions; conditions: c=52,7mg Gemcitabin/ml
Description: Zur Bestimmung der tatsächlichen, pH-abhängigen Löslichkeit von Gemcitabin in wässrigen Lösungen wurden entsprechend Beispiel 1 konzentrierte Gemcitabin-Lösungen (c=52,7 mg Gemcitabin/ml entsprechend 60mg Gemcitabinhydrochlorid pro ml Wasser; 5 ml/Vial) hergestellt, deren pH-Wert mit q.s. 1 N Natronlauge auf pH-Werte von 2,0 bis 5,0 eingestellt wurde. Die so erhaltenen Lösungen wurden bei einer Lagertemperatur von 2-8°C gelagert.
Tabelle 2: Stabilität von konzentrierten Gemcitabin-Lösungen vs. Auskristallisation des Wirkstoffs

[5] = Visible precipitation of aqueous gemcitabine solutions on storage (solubility, initial pH ca. 4,0); conditions: water, pH 4, water, 2-8°C storage, no solubility enhancers, read-out: Gehalt klarer partikelfreier Gemcitabinlösungen
Description: Zur Bestimmung der Löslichkeit von Gemcitabin in wässrigen Lösungen (bei T = 25°C und T = 2-8°C, Anfangs-pH-Wert = 4,0) wurde Gemcitabinhydrochlorid in Wasser für Injektionszwecke bei 25°C gelöst (c(Gemcitabin) = 55,2 mg/ml entsprechend 62,8 mg Gemcitabinhydrochlorid pro ml Wasser sowie c(Gemcitabin) = 10,0mg/ml entsprechend 11,38 mg Gemcitabinhydrochlorid pro ml Wasser) und der pH-Wert mit q.s. 1 N Natronlauge / q.s. 1 N Salzsäure eingestellt.
Aus dem so gewonnenen Ansatz wurden mit Wasser für Injektionszwecke verdünnte Lösungen hergestellt und potentiometrisch deren pH-Wert bestimmt. Die hergestellten Lösungen wurden jeweils als 5ml-Aliquote in mit Durchstechstopfen dicht verschlossenen Vials abgefüllt. Diese Proben wurden nach Lagerung bei 2-8°C bzw. bei 25°C auf sichtbare Auskristallisation des Wirkstoffs geprüft ("+" Niederschlag; "-" klar und partikelfrei) und ihr pH-Wert bestimmt. Tabelle 1: Niederschlagbildung in 25°C und 2-8°C-gelagerter Gemcitabinlösungen (Anfangs-pH ca. 4,0)

Nc1ccn([C@@H]2O[C@H](CO)[C@@H](O)C2(F)F)c(=O)n1 [Gemcitabin, 2'-Deoxy-2',2'-difluorcytidin]
Auskristallisation [1]: spontane (pH 5,0; 25°C) Auskristallisation
Dauer, über die die Lösungen stabil sind [2]: ≥ 3 Jahren
Gehalt ([3]; 5°C, 0 mon): 100,0 rel.%
Gehalt ([3]; 5°C, 3 mon, 129600 min): 99,7 rel.%
Gehalt ([3]; 5°C, 6 mon, 259200 min): 99,4 rel.%
Gehalt ([3]; 5°C, 9 mon, 388800 min): 99,2 rel.%
Gehalt ([3]; 5°C, 12 mon, 518400 min): 99,0 rel.%
Gehalt ([3]; 15°C, 0 mon): 100,0 rel.%
Gehalt ([3]; 15°C, 3 mon, 129600 min): 99,6 rel.%
Gehalt ([3]; 15°C, 6 mon, 259200 min): 99,2 rel.%
Gehalt ([3]; 15°C, 9 mon, 388800 min): 98,8 rel.%
Gehalt ([3]; 15°C, 12 mon, 518400 min): 98,3 rel.%
Gehalt ([3]; 25°C, 0 mon): 100,0 rel.%
Gehalt ([3]; 25°C, 3 mon, 129600 min): 97,1 rel.%
Gehalt ([3]; 25°C, 6 mon, 259200 min): 94,1 rel.%
Sichtbare Auskristallisation ([4]; pH 2,0, nach 1 Tag (2-8°C)): +
Sichtbare Auskristallisation ([4]; pH 2,0, nach 2 Tagen (2-8°C)): +
Sichtbare Auskristallisation ([4]; pH 2,0, nach 3 Tagen (2-8°C)): +
Sichtbare Auskristallisation ([4]; pH 2,0, nach 7 Tagen (2-8°C)): +
Sichtbare Auskristallisation ([4]; pH 2,0, nach 14 Tagen (2-8°C)): +
Sichtbare Auskristallisation ([4]; pH 2,5, nach 1 Tag (2-8°C)): -
Sichtbare Auskristallisation ([4]; pH 2,5, nach 2 Tagen (2-8°C)): +
Sichtbare Auskristallisation ([4]; pH 2,5, nach 3 Tagen (2-8°C)): +
Sichtbare Auskristallisation ([4]; pH 2,5, nach 7 Tagen (2-8°C)): +
Sichtbare Auskristallisation ([4]; pH 2,5, nach 14 Tagen (2-8°C)): +
Sichtbare Auskristallisation ([4]; pH 3,0, nach 1 Tag (2-8°C)): -
Sichtbare Auskristallisation ([4]; pH 3,0, nach 2 Tagen (2-8°C)): +
Sichtbare Auskristallisation ([4]; pH 3,0, nach 3 Tagen (2-8°C)): +
Sichtbare Auskristallisation ([4]; pH 3,0, nach 7 Tagen (2-8°C)): +
Sichtbare Auskristallisation ([4]; pH 3,0, nach 14 Tagen (2-8°C)): +
Sichtbare Auskristallisation ([4]; pH 3,5, nach 1 Tag (2-8°C)): -
Sichtbare Auskristallisation ([4]; pH 3,5, nach 2 Tagen (2-8°C)): -
Sichtbare Auskristallisation ([4]; pH 3,5, nach 3 Tagen (2-8°C)): -
Sichtbare Auskristallisation ([4]; pH 3,5, nach 7 Tagen (2-8°C)): -
Sichtbare Auskristallisation ([4]; pH 3,5, nach 14 Tagen (2-8°C)): -
solubility [5]: ~10000 µg/mL
